# How the values were obtained:
# [1] = LNP characterization: size and PDI by dynamic light scattering, mRNA encapsulation efficiency by RiboGreen assay; assay type: physicochemical
# Procedure: Particle sizes and “polydispersity index” (PDI) of the lipid particle were measured by dynamic light scattering (DLS). PDI indicates the width of the particle distribution. This is a parameter calculated from a cumulative analysis of the (DLS)-measured intensity autocorrelation function assuming a single particle size mode and a single exponential fit to the autocorrelation function. […] The particles produced by mechanical micromixers such as the NanoAssemblr® Spark™ and NanoAssemblr® Benchtop (Precision NanoSystems Inc.) are substantially homogeneous in size assuming all other variables are neutral. A lower PDI indicates a more homogenous population of lipid particles. The Spark™ instrument is used in a screening setting to identify the lead compositions. Once the composition is selected, the lipid particle can be fine-tuned using the NanoAssemblr® Benchtop. Once the process parameters Flow Rate Ratio and Total Flow Rate is identified for the specific nanoparticle composition, the nanoparticle technology can be scaled up using the same process parameter values.
# Lipid particles were also manufactured by a larger microfluidic mixer instrument, the NanoAssemblr® Ignite™ for testing. Briefly, 350 μL of mRNA was diluted using 100 mM sodium acetate buffer to the required concentration of 0.2 to 0.3 mg/mL. Lipid particle samples were then prepared by running both fluids, namely, nucleic acids in aqueous solvent and Lipid Mix in ethanol at a flow ratio of 3:1 and at a total flow rate of 12 ml/min in the microfluidic mixer. Following mixing in the microfluidic device, the post cartridge lipid nucleic acid particle sample was diluted into RNAse free tubes containing three to 40 volumes of phosphate buffered saline (PBS), pH 7.4. Ethanol was finally removed through dialysis in PBS, pH 7, or using Amicon™ centrifugal filters (Millipore, USA) at 3000 RPM, or using TFF systems. Once the required concentration was achieved, the lipid nucleic acid particles were filter sterilized using 0.2 μm filters in aseptic conditions. Final encapsulation efficiency was measured by the Ribogreen™ assay. Quant-iT™ RiboGreen® RNA Reagent and Kit (Invitrogen) following manufacturer directions.
# Messenger RNA or plasmid nucleic acid therapeutic (NAT) as described below, was diluted using sodium acetate buffer to the required concentration. Lipid nucleic acid particle (LNAP) samples were then prepared by running both fluids using the NanoAssemblr® Spark instrument. Briefly, […] of nucleic acids in 100 mM sodium acetate buffer in a total volume of 32 μL was mixed with 16 μL of 37.5 mM lipid mix solution as required by the N/P ratios (4, 6, or 10 in illustrated examples). The microfluidically mixed lipid nucleic acid particles (LNAP) made in the instrument were immediately diluted down with 48 μL Ca++ and Mg++ free 1× PBS at pH 7.4 in the aqueous output well. These LNAP were immediately collected into microcentrifuge tubes containing 96 μL of the same buffer at pH 7.4. Encapsulation efficiency was measured by a modified Ribogreen™ assay (Quanti-iT RiboGreen™ RNA assay kit, Fisher). This information was used to establish the desired dosage.
# After the lipid particles were made as described in Example 17, particle size (hydrodynamic diameter of the particles) was determined by Dynamic Light Scattering (DLS) using a ZetaSizer™ Nano ZS™ (Malvern Instruments, UK). He/Ne laser of 633 nm wavelength was used as the light source. Data were measured from the scattered intensity data conducted in backscattering detection mode (measurement angle=173). Measurements were an average of 10 runs of two cycles each per sample. Z-Average size was reported as the particle size, and is defined as the harmonic intensity averaged particle diameter. These LNP characteristics, as well as the results of the mRNA encapsulation efficiency for various Lipid Mixes are also described in the application are shown in Tables 4, 5 and 6. […]
# [2] = TNS fluorescence assay: experimental pKa of formulated lipid nanoparticles; assay type: physicochemical; settings: experimental surface pKa of empty LNP, cationic lipid/DSPC/cholesterol/PEG-lipid (50/10/38.5/1.5)
# Procedure: The pKa of each cationic lipid was determined in lipid nanoparticles using an assay based on fluorescence of 6-(p-Toluidino)-2-naphthalenesulfonic acid sodium salt (TNS, Sigma Aldrich), which is a fluorescent probe for the conformational state of proteins^5. Empty lipid nanoparticles comprising of cationic lipid/DSPC/cholesterol/PEG-lipid (50/10/38.5/1.5) in distilled water at a concentration of 3.125 mM total lipid are formulated using NanoAssemblr® Spark™, and were then was characterized for LNP quality on the Zetasizer™ using a 30× dilution with 1×PBS in the low volume cuvette. Lipid nanoparticles were further diluted 4× using distilled water to 0.781 mM total lipid. TNS was prepared as a 25 μM stock solution in distilled water. Then 6.4 μL of diluted LNP samples of 0.781 mM total lipid were mixed with 10 μL of diluted TNS to a final volume of 250 μL with buffer containing 10 mM HEPES, 10 mM MES, 10 mM NH4OAc and 130 mM NaCl where the pH ranged from 3 to 9 in 0.5 pH increments.
# Samples were mixed thoroughly, and the fluorescence intensity was measured at room temperature in a BioTek™ Synergy™ H1 Hybrid Multi-Mode Monochromator™ Fluorescence Microplate Reader using excitation and emission wavelengths of 321 nm and 445 nm respectively. A sigmoidal best fit analysis was applied to the fluorescence data using GraphPad Prism™ software, and the pKa was measured as the pH at half-maximal fluorescence intensity.
# [3] = 5-moU EPO encoded LNPs, IL:DSPC:cholesterol:DMG-PEG (50:10:38.5:1.5), N/P 6
# [4] = OVA encoded LNPs, payload WT OVA, LM02, N/P 8
# [5] = Table 4 LNPs, payload and lipid mix not stated
# [6] = OVA encoded LNPs, payload 5-moU OVA, LM02, N/P 8
"Diameter (Z. ave, nm) [1, 3]","Encapsulation Efficiency (%) [1, 3]","Polydispersity Index (PDI) [1, 3]","Diameter (Z. ave, nm) [1, 4]","Encapsulation Efficiency (%) [1, 4]","Polydispersity Index (PDI) [1, 4]","Diameter (Z. ave, nm) [1, 5]","Encapsulation Efficiency (%) [1, 5]","Polydispersity Index (PDI) [1, 5]",pKa [2],"Diameter (Z. ave, nm) [1, 6]","Encapsulation Efficiency (%) [1, 6]","Polydispersity Index (PDI) [1, 6]",SMILES
68.5 nm,98.7%,0.02,74.6 nm,98.7%,0.01,79.4 nm,98.8%,0.04,6.11,–,–,–,CC/C=C\CC1C(CC(=O)OCC(COCCCCCCCC/C=C\C/C=C\CCCCC)OCCCCCCCC/C=C\C/C=C\CCCCC)CCC1OC(=O)CCCN(CC)CC (centres unmarked) [PNI 542]
56.9 nm,96.3%,0.09,–,–,–,64.0 nm,96.3%,0.03,4.84,–,–,–,CCCCCCCCC1CC1CCCCCCCCOCC(COC(=O)CC1CCC(OC(=O)CCN(C)C)C1CC1CC1CC)OCCCCCCCCC1CC1CCCCCCCC (centres unmarked) [PNI 546]
55.4 nm,97.5%,0.09,–,–,–,55.1 nm,96.6%,0.06,5.52,–,–,–,CC/C=C\CC1C(CC(=O)OCCC(CCCCCCCC)OC(=O)C(CCCCCC)CCCCCCCC)CCC1OC(=O)CCN(C)C (centres unmarked) [PNI 554]
76.6 nm,97.3%,0.04,96.5 nm,76.1%,0.03,124.7 nm,60.1%,0.054,6.01,–,–,–,CC/C=C\CC1C(CC(=O)OCC(COCCCCCCCC/C=C\C/C=C\CCCCC)OCCCCCCCC/C=C\C/C=C\CCCCC)CCC1OC(=O)C1(C)CCN(C)CC1 (centres unmarked) [PNI 123]
64.6 nm,97.3%,0.03,–,–,–,59.4 nm,95.9%,0.07,5.16,–,–,–,CC/C=C\CC1C(CC(=O)OCC(COCCCCCCCC/C=C\C/C=C\CCCCC)OCCCCCCCC/C=C\C/C=C\CCCCC)CCC1OC(=O)CC1CCCCN1C (centres unmarked) [PNI 559]
69.0 nm,98.7%,0.02,75.9 nm,98.6%,0.02,68.5 nm,98.7%,0.12,6.18,76.5 nm,98.2%,0.04,CC/C=C\CC1C(CC(=O)OC(CCCCCCCCC2CC2CCCCCCCC)CCCCCCCCC2CC2CCCCCCCC)CCC1OC(=O)CCCN(C)C (centres unmarked) [PNI 516]
62.3 nm,97.6%,0.05,–,–,–,51.3 nm,97.9%,0.04,5.68,–,–,–,CC/C=C\CC1C(CC(=O)OCC(COCCCCCCCCC2CC2CCCCCCCC)OCCCCCCCCC2CC2CCCCCCCC)CCC1OC(=O)CCN(C)C (centres unmarked) [PNI 544]
60.8 nm,97.9%,0.03,–,–,–,69.9 nm,97.4%,0.03,5.99,–,–,–,CC/C=C\CC1C(CC(=O)OCCC(CCCCCCCC)OC(=O)C(CCCCCC)CCCCCCCC)CCC1OC(=O)C1(C)CCN(C)CC1 (centres unmarked) [PNI 565]

# From patent publication US12503432B2, “Ionizable lipids for nucleic acid delivery” (Global Life Sciences Solutions Canada ULC, priority 2019, dated 2025)
